Like-named read-outs stand apart in the source and are kept apart here.
What was measured:
EGFR wildtype (WT) = EGFR wildtype (WT) (Homo sapiens, UniProt P00533); test: Biochemical EGFR kinase inhibition assay (Lance Ultra TR-FRET), wildtype
Outline: (§1)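 In this biochemical assay, phosphorylation after a one-hour room-temperature reaction was detected with europium-labelled anti-phosphopeptide antibody at 2 nM final concentration.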

EGFR Del19/C797S = EGFR Del19/C797S (Homo sapiens, UniProt P00533, C797S/DEL746-750); test: Biochemical EGFR kinase inhibition assay (Lance Ultra TR-FRET), double mutant del19/C797S
EGFR Del19/C797S, sequence (P00533 with tags, fused parts or gaps DEL746-750/C797S): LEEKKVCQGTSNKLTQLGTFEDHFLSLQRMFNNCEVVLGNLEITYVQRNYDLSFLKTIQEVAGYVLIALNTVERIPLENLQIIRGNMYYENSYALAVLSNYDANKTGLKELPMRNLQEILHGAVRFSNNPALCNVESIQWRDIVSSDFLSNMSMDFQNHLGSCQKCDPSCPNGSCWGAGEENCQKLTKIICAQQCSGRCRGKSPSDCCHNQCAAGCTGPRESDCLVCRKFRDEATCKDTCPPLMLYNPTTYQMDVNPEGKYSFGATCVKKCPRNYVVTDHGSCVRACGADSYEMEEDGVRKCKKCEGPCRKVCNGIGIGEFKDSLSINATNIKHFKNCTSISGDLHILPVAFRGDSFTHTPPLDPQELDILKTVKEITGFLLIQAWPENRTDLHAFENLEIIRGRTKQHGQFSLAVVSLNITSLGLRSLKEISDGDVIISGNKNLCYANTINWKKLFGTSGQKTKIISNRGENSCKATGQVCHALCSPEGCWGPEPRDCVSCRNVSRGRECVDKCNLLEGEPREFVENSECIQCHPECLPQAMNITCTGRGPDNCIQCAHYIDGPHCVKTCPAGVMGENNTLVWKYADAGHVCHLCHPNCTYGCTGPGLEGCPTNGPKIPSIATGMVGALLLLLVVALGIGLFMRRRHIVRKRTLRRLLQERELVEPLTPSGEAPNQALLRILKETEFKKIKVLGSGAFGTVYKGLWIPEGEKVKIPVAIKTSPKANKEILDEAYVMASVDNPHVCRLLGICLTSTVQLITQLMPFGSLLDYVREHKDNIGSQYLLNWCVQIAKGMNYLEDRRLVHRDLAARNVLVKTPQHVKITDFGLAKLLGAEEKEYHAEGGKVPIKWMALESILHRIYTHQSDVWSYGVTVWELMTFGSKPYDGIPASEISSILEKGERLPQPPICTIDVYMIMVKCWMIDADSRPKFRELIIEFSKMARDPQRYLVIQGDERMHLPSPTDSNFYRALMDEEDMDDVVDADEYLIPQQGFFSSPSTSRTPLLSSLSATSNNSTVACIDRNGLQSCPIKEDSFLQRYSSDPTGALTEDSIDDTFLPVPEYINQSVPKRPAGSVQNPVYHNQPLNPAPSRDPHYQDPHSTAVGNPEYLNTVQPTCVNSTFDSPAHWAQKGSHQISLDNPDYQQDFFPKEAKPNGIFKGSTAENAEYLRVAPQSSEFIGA
Outline: as §1

EGFR L858R/C797S = EGFR L858R/C797S (Homo sapiens, UniProt P00533, C797S/L858R); test: Biochemical EGFR kinase inhibition assay (Lance Ultra TR-FRET), double mutant L858R/C797S
EGFR L858R/C797S, sequence (P00533 25-1210 C797S/L858R): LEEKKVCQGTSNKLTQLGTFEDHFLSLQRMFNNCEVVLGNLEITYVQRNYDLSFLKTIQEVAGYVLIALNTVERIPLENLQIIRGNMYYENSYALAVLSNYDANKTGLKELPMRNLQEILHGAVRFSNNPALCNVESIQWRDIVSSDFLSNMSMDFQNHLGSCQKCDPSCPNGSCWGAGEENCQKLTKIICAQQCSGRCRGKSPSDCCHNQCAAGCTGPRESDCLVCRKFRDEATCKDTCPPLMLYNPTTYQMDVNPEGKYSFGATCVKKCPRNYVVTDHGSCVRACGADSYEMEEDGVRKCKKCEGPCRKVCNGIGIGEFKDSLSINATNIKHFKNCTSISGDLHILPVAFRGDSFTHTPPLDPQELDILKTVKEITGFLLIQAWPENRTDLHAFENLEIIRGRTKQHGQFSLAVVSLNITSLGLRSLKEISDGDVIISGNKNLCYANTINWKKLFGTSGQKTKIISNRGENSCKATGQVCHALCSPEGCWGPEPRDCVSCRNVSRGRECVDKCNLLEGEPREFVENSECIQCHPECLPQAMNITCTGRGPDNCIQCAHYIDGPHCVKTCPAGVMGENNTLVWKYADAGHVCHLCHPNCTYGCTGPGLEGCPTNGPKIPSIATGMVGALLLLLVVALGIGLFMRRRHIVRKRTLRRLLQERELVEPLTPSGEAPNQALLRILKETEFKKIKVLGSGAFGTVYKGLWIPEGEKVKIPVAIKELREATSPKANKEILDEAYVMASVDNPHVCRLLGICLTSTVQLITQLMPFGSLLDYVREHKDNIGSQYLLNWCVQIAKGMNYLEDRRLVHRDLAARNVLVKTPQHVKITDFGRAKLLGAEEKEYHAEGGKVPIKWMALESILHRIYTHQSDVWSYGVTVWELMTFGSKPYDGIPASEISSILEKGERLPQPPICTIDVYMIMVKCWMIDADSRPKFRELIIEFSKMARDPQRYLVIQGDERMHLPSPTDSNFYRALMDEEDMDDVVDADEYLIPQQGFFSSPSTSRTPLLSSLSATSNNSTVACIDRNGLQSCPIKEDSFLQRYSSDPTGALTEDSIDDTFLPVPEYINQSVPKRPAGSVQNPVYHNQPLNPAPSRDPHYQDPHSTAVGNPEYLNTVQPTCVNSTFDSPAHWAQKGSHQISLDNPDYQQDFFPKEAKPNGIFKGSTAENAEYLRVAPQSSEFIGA
Outline: as §1

EGFR Del19/T790M/C797S = EGFR Del19/T790M/C797S (Homo sapiens, UniProt P00533, C797S/DEL746-750/T790M); test: Biochemical EGFR kinase inhibition assay (Lance Ultra TR-FRET), triple mutant del19/T790M/C797S
EGFR Del19/T790M/C797S, sequence (P00533 with tags, fused parts or gaps DEL746-750/T790M/C797S): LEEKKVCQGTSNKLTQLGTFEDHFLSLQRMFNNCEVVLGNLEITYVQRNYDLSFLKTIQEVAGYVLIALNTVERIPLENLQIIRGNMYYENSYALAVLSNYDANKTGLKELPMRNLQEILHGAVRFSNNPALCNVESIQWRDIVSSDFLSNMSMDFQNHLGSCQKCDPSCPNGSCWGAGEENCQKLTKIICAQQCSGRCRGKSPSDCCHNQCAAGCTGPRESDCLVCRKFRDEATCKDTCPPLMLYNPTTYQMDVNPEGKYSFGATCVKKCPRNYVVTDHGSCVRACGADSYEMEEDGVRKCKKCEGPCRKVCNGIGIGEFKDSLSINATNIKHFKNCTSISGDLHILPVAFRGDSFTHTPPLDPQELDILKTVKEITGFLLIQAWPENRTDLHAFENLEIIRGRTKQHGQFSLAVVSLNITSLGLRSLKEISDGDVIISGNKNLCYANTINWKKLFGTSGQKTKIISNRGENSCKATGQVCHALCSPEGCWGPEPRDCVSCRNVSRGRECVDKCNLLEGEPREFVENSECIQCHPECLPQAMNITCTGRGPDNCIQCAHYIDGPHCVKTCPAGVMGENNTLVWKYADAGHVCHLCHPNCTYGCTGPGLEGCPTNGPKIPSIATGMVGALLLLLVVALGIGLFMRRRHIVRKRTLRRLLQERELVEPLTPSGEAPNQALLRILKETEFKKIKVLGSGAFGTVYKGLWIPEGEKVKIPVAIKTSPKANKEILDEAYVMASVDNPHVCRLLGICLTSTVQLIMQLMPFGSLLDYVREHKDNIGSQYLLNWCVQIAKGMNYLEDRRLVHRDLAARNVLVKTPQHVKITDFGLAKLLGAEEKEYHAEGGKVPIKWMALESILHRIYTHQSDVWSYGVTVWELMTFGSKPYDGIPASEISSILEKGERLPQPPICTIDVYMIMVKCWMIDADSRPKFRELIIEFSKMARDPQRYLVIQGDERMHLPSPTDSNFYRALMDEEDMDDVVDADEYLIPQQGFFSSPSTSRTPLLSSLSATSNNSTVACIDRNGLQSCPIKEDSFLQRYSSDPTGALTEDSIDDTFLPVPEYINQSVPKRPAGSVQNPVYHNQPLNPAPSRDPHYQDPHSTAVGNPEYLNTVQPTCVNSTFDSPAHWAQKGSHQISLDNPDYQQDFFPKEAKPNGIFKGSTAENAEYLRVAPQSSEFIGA
Outline: as §1

EGFR L858R/T790M/C797S = EGFR L858R/T790M/C797S (Homo sapiens, UniProt P00533, C797S/L858R/T790M); test: Biochemical EGFR kinase inhibition assay (Lance Ultra TR-FRET), triple mutant L858R/T790M/C797S
Outline: as §1

[1] = IC50 Del19/C797S (nM), 100 μM ATP
[2] = IC50 L858R/C797S (nM), 100 μM ATP
[3] = IC50 Del19/T790M/C797S (nM), 100 μM ATP
[4] = IC50 L858R/T790M/C797S (nM), 100 μM ATP

EGFR wildtype (WT), sequence (P00533 25-1210): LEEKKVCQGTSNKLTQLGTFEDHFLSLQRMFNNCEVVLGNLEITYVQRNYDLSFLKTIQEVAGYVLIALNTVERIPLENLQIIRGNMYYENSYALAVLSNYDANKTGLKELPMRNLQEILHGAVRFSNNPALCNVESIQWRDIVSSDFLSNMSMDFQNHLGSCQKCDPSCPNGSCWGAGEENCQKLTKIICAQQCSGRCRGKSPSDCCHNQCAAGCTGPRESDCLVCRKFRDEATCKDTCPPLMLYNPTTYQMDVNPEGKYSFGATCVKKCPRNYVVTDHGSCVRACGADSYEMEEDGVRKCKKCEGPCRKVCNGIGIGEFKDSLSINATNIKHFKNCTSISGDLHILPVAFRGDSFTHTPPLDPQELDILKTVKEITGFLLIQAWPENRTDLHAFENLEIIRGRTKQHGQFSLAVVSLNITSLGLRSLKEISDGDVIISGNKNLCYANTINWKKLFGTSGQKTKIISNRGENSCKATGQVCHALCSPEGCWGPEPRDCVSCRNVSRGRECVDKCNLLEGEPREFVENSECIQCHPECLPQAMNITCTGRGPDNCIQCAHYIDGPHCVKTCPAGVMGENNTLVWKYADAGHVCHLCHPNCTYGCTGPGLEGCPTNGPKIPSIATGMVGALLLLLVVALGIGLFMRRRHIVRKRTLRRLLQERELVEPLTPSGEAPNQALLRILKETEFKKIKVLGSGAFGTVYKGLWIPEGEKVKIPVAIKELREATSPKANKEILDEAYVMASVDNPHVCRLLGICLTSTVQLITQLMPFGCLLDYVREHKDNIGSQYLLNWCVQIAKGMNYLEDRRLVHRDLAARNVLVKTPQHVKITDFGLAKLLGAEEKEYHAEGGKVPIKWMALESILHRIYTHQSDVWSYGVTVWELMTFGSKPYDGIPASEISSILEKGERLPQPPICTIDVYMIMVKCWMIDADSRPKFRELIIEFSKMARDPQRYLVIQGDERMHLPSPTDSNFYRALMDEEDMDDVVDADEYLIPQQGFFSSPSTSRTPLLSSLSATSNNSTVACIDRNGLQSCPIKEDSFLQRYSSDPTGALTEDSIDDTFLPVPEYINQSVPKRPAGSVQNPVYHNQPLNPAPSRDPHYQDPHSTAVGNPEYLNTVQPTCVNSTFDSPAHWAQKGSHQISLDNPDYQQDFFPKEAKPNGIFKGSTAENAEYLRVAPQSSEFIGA

| Structure (SMILES) | IC50 (EGFR wildtype (WT); ATP at Km, read-out: IC50 WT (nM), Km ATP) [nM] | IC50 (EGFR wildtype (WT); IC50 WT (nM), 100 μM ATP) [nM] | IC50 (EGFR Del19/C797S; ATP at Km, read-out: IC50 Del19/C797S (nM), Km ATP) [nM] | IC50 (EGFR Del19/C797S; [1]) [nM] | IC50 (EGFR L858R/C797S; ATP at Km, read-out: IC50 L858R/C797S (nM), Km ATP) [nM] | IC50 (EGFR L858R/C797S; [2]) [nM] | IC50 (EGFR Del19/T790M/C797S; ATP at Km, read-out: IC50 Del19/T790M/C797S (nM), Km ATP) [nM] | IC50 (EGFR Del19/T790M/C797S; [3]) [nM] | IC50 (EGFR L858R/T790M/C797S; ATP at Km, read-out: IC50 L858R/T790M/C797S (nM), Km ATP) [nM] | IC50 (EGFR L858R/T790M/C797S; [4]) [nM] | IC50 (EGFR wildtype (WT); Km ATP, read-out: IC50 WT (nM) Km ATP) [nM] | IC50 (EGFR Del19/C797S; Km ATP, read-out: IC50 Del19/C797S (nM) Km ATP) [nM] | IC50 (EGFR L858R/C797S; Km ATP, read-out: IC50 L858R/C797S (nM) Km ATP) [nM] | IC50 (EGFR Del19/T790M/C797S; Km ATP, read-out: IC50 Del19/T790M/C797S (nM) Km ATP) [nM] | IC50 (EGFR L858R/T790M/C797S; Km ATP, read-out: IC50 L858R/T790M/C797S (nM) Km ATP) [nM] | IC50 (EGFR wildtype (WT); Km ATP, read-out: IC50 WT (nM), Km ATP) [nM] | IC50 (EGFR Del19/C797S; Km ATP, read-out: IC50 Del19/C797S (nM), Km ATP) [nM] | IC50 (EGFR L858R/C797S; Km ATP, read-out: IC50 L858R/C797S (nM), Km ATP) [nM] | IC50 (EGFR Del19/T790M/C797S; Km ATP, read-out: IC50 Del19/T790M/C797S (nM), Km ATP) [nM] | IC50 (EGFR L858R/T790M/C797S; Km ATP, read-out: IC50 L858R/T790M/C797S (nM), Km ATP) [nM] |
| --- | --- | --- | --- | --- | --- | --- | --- | --- | --- | --- | --- | --- | --- | --- | --- | --- | --- | --- | --- | --- |
| CN(C)CC1(O)CCN(c2cc(Nc3ccnc(-c4cnn(S(=O)(=O)C5CC5)c4)n3)ncc2C#Cc2cnn(C3CC3)c2)CC1 [Example 316, 1-(5-((1-Cyclopropyl-1H-pyrazol-4-yl)ethynyl)-2-((2-(1-(cyclopropylsulfonyl)-1H-pyrazol-4-yl)pyrimidin-4-yl)amino)pyridin-4-yl)-4-((dimethylamino)methyl)piperidin-4-ol] | – | > 10000 | – | 56.7 | – | 72.8 | – | 4.7 | – | 5.8 | – | – | – | – | – | – | – | – | – | – |
| Cn1cc(C#Cc2cnc(Nc3ccnc(-c4cnn(S(=O)(=O)C5CC5)c4)n3)cc2N2CCC(NCCF)CC2)cn1 [Example 129, 2-(1-(Cyclopropylsulfonyl)-1H-pyrazol-4-yl)-N-(4-(4-((2-fluoroethyl)amino)piperidin-1-yl)-5-((1-methyl-1H-pyrazol-4-yl)ethynyl)pyridin-2-yl)pyrimidin-4-amine] | – | > 10000 | – | 4.4 | – | 23.8 | – | 0.5 | – | 0.8 | – | – | – | – | – | – | – | – | – | – |
| Cn1cc(C#Cc2cnc(Nc3ccnc(-c4cnn(S(=O)(=O)C5CC5)c4)n3)cc2N2CCCC(C(F)(F)F)C2)cn1 (centres unmarked) [Example 71, 2-(1-(Cyclopropylsulfonyl)-1H-pyrazol-4-yl)-N-(5-((1-methyl-1H-pyrazol-4-yl)ethynyl)-4-(3-(trifluoromethyl)piperidin-1-yl)pyridin-2-yl)pyrimidin-4-amine] | – | > 10000 | – | 127 | – | 751 | – | 15.7 | – | 52.6 | – | – | – | – | – | – | – | – | – | – |
| CC1OCCC1C#Cc1cnc(Nc2ccnc(-c3cnn(S(=O)(=O)C4CC4)c3)n2)cc1N1CCC(C)(O)CC1 (centres unmarked) [Example 432, 1-(2-((2-(1-(Cyclopropylsulfonyl)-1H-pyrazol-4-yl)pyrimidin-4-yl)amino)-5-((2-methyltetrahydrofuran-3-yl)ethynyl)pyridin-4-yl)-4-methylpiperidin-4-ol] | – | > 10000 | – | 5.2 | – | 141 | – | 0.6 | – | 0.7 | – | – | – | – | – | 11.4 | 3.1 | 5.3 | 0.4 | 0.3 |

The remaining lines, values ahead:

| IC50 (EGFR wildtype (WT); ATP at Km, read-out: IC50 WT (nM), Km ATP) [nM] | IC50 (EGFR wildtype (WT); IC50 WT (nM), 100 μM ATP) [nM] | IC50 (EGFR Del19/C797S; ATP at Km, read-out: IC50 Del19/C797S (nM), Km ATP) [nM] | IC50 (EGFR Del19/C797S; [1]) [nM] | IC50 (EGFR L858R/C797S; ATP at Km, read-out: IC50 L858R/C797S (nM), Km ATP) [nM] | IC50 (EGFR L858R/C797S; [2]) [nM] | IC50 (EGFR Del19/T790M/C797S; ATP at Km, read-out: IC50 Del19/T790M/C797S (nM), Km ATP) [nM] | IC50 (EGFR Del19/T790M/C797S; [3]) [nM] | IC50 (EGFR L858R/T790M/C797S; ATP at Km, read-out: IC50 L858R/T790M/C797S (nM), Km ATP) [nM] | IC50 (EGFR L858R/T790M/C797S; [4]) [nM] | IC50 (EGFR wildtype (WT); Km ATP, read-out: IC50 WT (nM) Km ATP) [nM] | IC50 (EGFR Del19/C797S; Km ATP, read-out: IC50 Del19/C797S (nM) Km ATP) [nM] | IC50 (EGFR L858R/C797S; Km ATP, read-out: IC50 L858R/C797S (nM) Km ATP) [nM] | IC50 (EGFR Del19/T790M/C797S; Km ATP, read-out: IC50 Del19/T790M/C797S (nM) Km ATP) [nM] | IC50 (EGFR L858R/T790M/C797S; Km ATP, read-out: IC50 L858R/T790M/C797S (nM) Km ATP) [nM] | IC50 (EGFR wildtype (WT); Km ATP, read-out: IC50 WT (nM), Km ATP) [nM] | IC50 (EGFR Del19/C797S; Km ATP, read-out: IC50 Del19/C797S (nM), Km ATP) [nM] | IC50 (EGFR L858R/C797S; Km ATP, read-out: IC50 L858R/C797S (nM), Km ATP) [nM] | IC50 (EGFR Del19/T790M/C797S; Km ATP, read-out: IC50 Del19/T790M/C797S (nM), Km ATP) [nM] | IC50 (EGFR L858R/T790M/C797S; Km ATP, read-out: IC50 L858R/T790M/C797S (nM), Km ATP) [nM] | Structure (SMILES) |
| --- | --- | --- | --- | --- | --- | --- | --- | --- | --- | --- | --- | --- | --- | --- | --- | --- | --- | --- | --- | --- |
| 6.1 | 2920 | 0.7 | 0.6 | 0.6 | 6 | 0.1 | 0.1 | 0.05 | 0.1 | – | – | – | – | – | – | – | – | – | – | CN1CCC(C#Cc2cnc(Nc3ccnc(-c4cnn(S(=O)(=O)C5CC5)c4)n3)cc2NC2CCC(O)CC2)C1 (centres unmarked) [Example 181, (1s,4s)-4-((2-((2-(1-(Cyclopropylsulfonyl)-1H-pyrazol-4-yl)pyrimidin-4-yl)amino)-5-((1-methylpyrrolidin-3-yl)ethynyl)pyridin-4-yl)amino)cyclohexan-1-ol] |
| – | 3840 | – | 2.4 | – | 3.5 | – | 0.3 | – | 0.4 | – | – | – | – | – | – | – | – | – | – | CN(C)CCNC1CCN(c2cc(Nc3ccnc(-c4cnn(S(=O)(=O)C5CC5)c4)n3)ncc2C#Cc2cnn(C)c2)CC1 [Example 133, N^1-(1-(2-((2-(1-(Cyclopropylsulfonyl)-1H-pyrazol-4-yl)pyrimidin-4-yl)amino)-5-((1-methyl-1H-pyrazol-4-yl)ethynyl)pyridin-4-yl)piperidin-4-yl)-N^2,N^2-dimethylethane-1,2-diamine] |
| – | > 10000 | – | 11.7 | – | 74.2 | – | 0.4 | – | 2 | 174 | 8.8 | 5 | 0.4 | 0.4 | – | – | – | – | – | O=S(=O)(C1CC1)n1cc(-c2nccc(Nc3cc(N4CCC(NCCO)CC4)c(C#Cc4cnn(C5CCOCC5)c4)cn3)n2)cn1 [Example 137, 2-((1-(2-((2-(1-(Cyclopropylsulfonyl)-1H-pyrazol-4-yl)pyrimidin-4-yl)amino)-5-((1-(tetrahydro-2H-pyran-4-yl)-1H-pyrazol-4-yl)ethynyl)pyridin-4-yl)piperidin-4-yl)amino)ethan-1-ol] |

Source: patent US11981658B2, “Substituted aminopyridine compounds as EGFR inhibitors” (YUHAN CORPORATION, priority 2021, dated 2024)
